Test results: patent publication US20240335431A1, “1-H-PYRROLO[2,3-c]PYRIDINE COMPOUNDS” (Acerta Pharma B.V., priority 2023, published 2024)

Legend:
[1] = Caco-2 cell monolayers intrinsic permeation assay in the presence of efflux inhibitors; type: in vitro ADME; details: Caco-2, with efflux inhibitors
Procedure, shortened: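 Caco-2 monolayers grown 14–18 days on Transwells; compound dosed apically in HBSS with efflux inhibitors (Zosuquidar, Benzbromarone, KO-143), inhibitors also basolateral, 37 °C with shaking. Sampled at 0, 45 and 120 min, analysed by LC/MS/MS; apical-to-basolateral Papp (cm/s) calculated.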

[2] = target: hERG (Homo sapiens (Human), UniProt Q12809); assay: hERG assay 1 (standard), SyncroPatch 384PE; type: cell-based; details: CHO cells, room temperature, up to 40 uM
Procedure, shortened: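 Automated patch clamp on hERG-expressing CHO-K1 cells at room temperature, +60/−40 mV protocol every 15 s. Six-point cumulative concentrations 139 nM to 40 uM (0.33% DMSO final); IC50 from one-site fit of % inhibition. Wells required ≥30 MegaOhm seal, current >0.2 nA, Z prime >0.4.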

[3] = system: OCI-AML3 cells; assay: Proliferation assay, OCI-AML3 (CellTiter-Glo, 7 days); type: cell-based, human; details: Homo sapiens, OCI-AML-3, 168 h
Procedure, shortened: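 Cells seeded at 125 (MOLM-13), 300 (MV4;11), 75 (OCI-AML3) or 200 (HEL) per well were exposed to 3.16-fold compound dilutions (0.1% DMSO) for 7 days at 37° C. Viability by CellTiter-Glo luminescence, normalized to DMSO (100%) and day-0 plate (0%); IC50 from one-site dose-response fit.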

Sequence of hERG (Q12809 whole entry): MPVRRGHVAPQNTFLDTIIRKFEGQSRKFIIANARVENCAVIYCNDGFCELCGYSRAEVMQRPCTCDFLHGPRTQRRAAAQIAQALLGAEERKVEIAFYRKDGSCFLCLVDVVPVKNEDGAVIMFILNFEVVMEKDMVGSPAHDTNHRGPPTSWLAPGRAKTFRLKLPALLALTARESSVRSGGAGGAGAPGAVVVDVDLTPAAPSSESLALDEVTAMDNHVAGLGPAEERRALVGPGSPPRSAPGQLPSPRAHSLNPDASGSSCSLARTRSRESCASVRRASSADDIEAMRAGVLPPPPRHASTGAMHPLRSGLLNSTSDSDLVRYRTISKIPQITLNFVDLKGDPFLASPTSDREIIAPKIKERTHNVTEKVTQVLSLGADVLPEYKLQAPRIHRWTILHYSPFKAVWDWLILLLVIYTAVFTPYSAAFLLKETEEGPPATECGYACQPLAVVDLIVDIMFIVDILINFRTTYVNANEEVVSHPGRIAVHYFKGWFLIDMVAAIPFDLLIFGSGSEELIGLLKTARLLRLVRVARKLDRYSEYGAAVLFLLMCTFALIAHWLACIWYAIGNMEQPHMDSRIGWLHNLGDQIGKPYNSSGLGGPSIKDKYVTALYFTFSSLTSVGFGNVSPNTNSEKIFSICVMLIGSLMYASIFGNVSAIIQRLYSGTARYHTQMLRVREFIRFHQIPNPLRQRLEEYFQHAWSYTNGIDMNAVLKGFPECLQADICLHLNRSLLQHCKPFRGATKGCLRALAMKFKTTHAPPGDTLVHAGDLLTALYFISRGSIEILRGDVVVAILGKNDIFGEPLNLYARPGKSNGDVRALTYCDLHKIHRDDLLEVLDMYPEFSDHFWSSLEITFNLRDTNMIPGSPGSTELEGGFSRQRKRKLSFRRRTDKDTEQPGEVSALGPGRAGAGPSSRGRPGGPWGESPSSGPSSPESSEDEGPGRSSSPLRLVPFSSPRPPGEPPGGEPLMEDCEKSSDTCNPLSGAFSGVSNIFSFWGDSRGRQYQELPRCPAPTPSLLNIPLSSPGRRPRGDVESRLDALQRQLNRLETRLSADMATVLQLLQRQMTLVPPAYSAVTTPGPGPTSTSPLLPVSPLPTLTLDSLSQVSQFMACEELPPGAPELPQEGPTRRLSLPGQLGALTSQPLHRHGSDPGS

SMILES	Papp A→B [1]	IC50 [2]	IC50 [3]
CCN(C(=O)c1cc(F)ccc1-n1c(C)c(C(=O)C2CCN(C(=O)[C@H]3NC[C@@H]4C[C@@H]43)CC2)c2ccncc21)C(C)C [Example 47, 2-(3-(1-((1S,2S,5R)-3-Azabicyclo[3.1.0]hexane-2-carbonyl)piperidine-4-carbonyl)-2-methyl-1H-pyrrolo[2,3-c]pyridin-1-yl)-N-ethyl-5-fluoro-N-isopropylbenzamide]	1.9 ×10⁻⁶ cm/s	> 40000 nM	26 nM
Cc1c(C(=O)C2CCN(C(=O)[C@H]3NC[C@@H]4C[C@@H]43)CC2)c2ccncc2n1-c1ccc(F)cc1-c1cnccc1C(C)C [Example 54, (1-((1S,2S,5R)-3-Azabicyclo[3.1.0]hexane-2-carbonyl)piperidin-4-yl)(1-(4-fluoro-2-(4-isopropylpyridin-3-yl)phenyl)-2-methyl-1H-pyrrolo[2,3-c]pyridin-3-yl)methanone]	4 ×10⁻⁶ cm/s	13100 nM	43 nM
